Measured values published in paper PMC12677607, “Identification of a Pair of Linear or Cyclic Naturally Inspired Bifunctional Lipopeptide Antibiotics That Overcome Antimicrobial Resistance” (Advanced Science, 2025).
Bridge positions count the residues as written; N and C are the ends. Square brackets hold non-standard residues; d marks the D form. Peptide text beside a SMILES is read from it. * marks the point of attachment. Myristoyl = CCCCCCCCCCCCCC(=O)*; Orn = NCCC[C@H](N)C(=O)O; Dab = NCC[C@H](N)C(=O)O; Dap = NC[C@H](N)C(=O)O

Experiments:
[1] = tested on: Candida albicans ATCC 64550; type: cell-based; conditions: ATCC 64550, 16 h
Protocol: All MIC assays were performed two independent times (n = 2) in 96‐well plates using a broth micro‐dilution method. The lowest concentration of that inhibited visible microbial growth was recorded as the MIC value.
For fungal strains, overnight cultures were diluted 2000‐fold in YPD broth. 100 µL of diluted cells was mixed with 100 µL of YPD broth containing each peptide ranging from […] 64 to 0.125 µg mL^−1 at 2‐fold serial dilutions.

[2] = Isothermal titration calorimetry; type: binding, Escherichia coli O55:B5; conditions: Table S12; ITC, 2 mM LPS into 0.2 mM peptide, in H2O, 20 injections
Protocol: Calorimetric experiments were performed to evaluate the interaction between CL, PE, PG, or LPS and aquicidine L or aquicidine C4. To determine the affinity between aquicidine L or aquicidine C4 and CL, PE, or PG, both 2 mM CL, PE, or PG and 0.2 mM aquicidine L or aquicidine C4 were dissolved in 20 mM HEPES buffer (pH 7.5). To determine the interaction between LPS and aquicidine L or aquicidine C4, 2 mM LPS and 0.2 mM aquicidine L or aquicidine C4 were dissolved in H2O. Sequential injections of CL, PE, PG, or LPS into the calorimetric cell filled with aquicidine L or aquicidine C4 were repeated 20 times with equilibration intervals of 200 s. Data were collected by using a MicroCal PEAQ‐ITC instrument and calculated for the equilibrium dissociation constant (KD), change of enthalpy (ΔH), and change of entropy […].

S. aureus USA300 [3] = assay: Time-dependent killing assay; type: cell-based; conditions: 4× MIC, time-dependent killing curve, n = 3
Protocol: Overnight cultures of S. aureus USA300 were diluted 1:10000 in LB broth and incubated for 2 h at 37 °C and 200 rpm. […] After 15, 30, 60, 120, 180, 240, 300, and 360 min, 100 µL of cell suspension were collected, serially diluted, and plated on LB agar plates. After an incubation of 16 h at 37 °C, bacterial colonies were counted. Experiments were performed three independent times (n = 3).

S. aureus USA300 [4] = assay: UDP-MurNAc-pentapeptide accumulation assay; type: cell-based; conditions: 8 × MIC, 1 hr, LC-MS
Protocol: To determine the effects of aquicidine L or aquicidine C4 on bacterial cell wall biosynthesis of S. aureus USA300, the accumulation of the precursor UDP‐MurNAc‐pentapeptide was investigated in antibiotic‐treated cell cultures. 50 µL of overnight cultures were transferred to 5 mL of fresh LB broth and cultured to 0.5 of OD600 at 37 °C and 200 rpm. The cultures were treated with 130 µg/mL of chloramphenicol for 15 min at 37 °C and 200 rpm, and 128 µg/mL of aquicidine L or 32 µg/mL aquicidine C4 was added. 8 µg/mL of vancomycin and DMSO were used as positive and negative controls, respectively. After an incubation of 1 hr, the cell pellet from 0.5 mL of the cell cultures was resuspended in 30 µL of ddH2O and then boiled for 15 min. Finally, the supernatant was collected and then detected using an Agilent 1290 Series High‐Performance Liquid Chromatography (HPLC) coupled to a 6546 Series QTOF mass spectrometer equipped with an XBridge C18 column (4.6 × 150 mm, 5 µm). Solvent A = H2O (0.1% v/v formic acid) and solvent B = CH3CN (0.1% v/v formic acid) were used for HPLC analysis with 0.4 mL min^−1 of flow rate at 25 °C. Gradient conditions were as follows: t = 0‐1 min, 3% solvent B; t = 2‐7 min, 3‐95% solvent B; t = 7‐8 min, 95% solvent B; t = 8–9 min, 95‐3% solvent B; t = 9–10 min, 3% solvent B.

S. aureus USA300 [5] = assay: Membrane depolarization assay (DiSC3(5)); type: cell-based; conditions: S. aureus USA300 in PBS, 4 × MIC, n = 2
Protocol: Bacterial membrane depolarization assay was performed in 384‐well black microtiter plates. Overnight cell cultures of S. aureus USA300 were collected and resuspended in PBS buffer to an OD600 of 0.5. Then, 100 µL of the diluted cell suspension and 50 µL of 20 µM DiSC3(5) dye were added to 300 µL of PBS buffer, which was incubated for 15 min at room temperature in the dark. 50 µL of 2 M KCl was then added and incubated for another 15 min. Fluorescence intensity was determined continually at 2 s intervals (Ex/Em 643/675 nm) using a Tecan spark multimode microplate reader. When the signal stabilized, the appropriate amount of aquicidine L or aquicidine C4 (6.4 mg mL^−1 in DMSO, 4 × MIC) was added. DMSO and daptomycin were used as negative and positive controls, respectively. Data were shown as the relative intensity with respect to the average fluorescence signal prior to the addition of each compound. All assays were performed two independent times (n = 2), and a representative fluorescence recording was presented.

S. aureus USA300 [6] = assay: Membrane lysis assay (SYTOX Green); type: cell-based; conditions: S. aureus USA300 in PBS, 8 × MIC, n = 2
Protocol: Bacterial membrane lysis assay was performed in 384‐well black microtiter plates. Overnight cultures of S. aureus USA300 were collected and resuspended in PBS buffer to an OD600 of 0.5. 1 µL of 5 mM SYTOX Green dye was added to 2.5 mL of the diluted cell suspension, which was incubated for 10 min at room temperature in the dark. Fluorescence intensity was detected continually at 2 s intervals (Ex/Em 488/523 nm) using a Tecan spark multimode microplate reader. When the fluorescence signal stabilized, the appropriate amount of each compound (6.4 mg mL^−1 in DMSO, 8 × MIC) was added. DMSO and daptomycin (with 15 mM CaCl2) were used as negative and positive controls, respectively. Data were shown as the relative intensity with respect to the average fluorescence signal prior to the addition of each compound. All membrane lysis assays were performed two independent times (n = 2), and a representative fluorescence recording was presented.

S. aureus USA300 [7] = assay: Membrane component feeding assay; type: cell-based; conditions: for inhibition of antibacterial activity by MK, UQ or PC: feeding 2 to 128 µg mL^−1, S. aureus USA300 (PC also E. coli DH5α), Figure S125
Protocol: The effects of bacterial membrane components on aquicidine L's or aquicidine C4's anti‐bacterial activities were evaluated using E. coli DH5α or S. aureus USA300. […] All experiments were done in triplicate (n = 3) and repeated two independent times (n = 2).

Acute toxicity assay = type: in vivo, mouse; conditions: single dose 250 mg kg^−1 intraperitoneal, three mice, five days
Protocol: For acute toxicity assessment, three mice were given a single dose of aquicidine L or aquicidine C4 at 250 mg kg^−1 via intraperitoneal injection. Mice were observed twice daily for mortality and morbidity as well as for possible signs of acute toxicity. The experiment was totally monitored for five days.

SMILES	MIC Candida albicans ATCC 64550 [1] [µg/mL]	Kd [2] [µM]	bactericidal activity, number of viable cells (S. aureus USA300 [3])	accumulation of UDP-MurNAc-pentapeptide (S. aureus USA300 [4])	DiSC3(5) fluorescence (membrane depolarization) (S. aureus USA300 [5])	SYTOX fluorescence (cell lysis) (S. aureus USA300 [6])	inhibition of antibacterial activity by CL and PG (S. aureus USA300 [7]; feeding 2 to 128 µg mL^−1, S. aureus USA300, Figure 5d)	inhibition of antibacterial activity by MK, UQ or PC (S. aureus USA300 [7])	acute toxicity in mouse (Acute toxicity assay)
CCCCCCCCCCCCCC(=O)N[C@@H](CN)C(=O)N[C@H](C(=O)N[C@@H](CC(C)C)C(=O)N[C@H]1COC(=O)[C@H](Cc2ccccc2)NC(=O)[C@H](CC(N)=O)NC(=O)[C@H](CCCN)NC(=O)[C@H]([C@@H](C)CC)NC(=O)[C@H](Cc2ccccc2)NC(=O)[C@H](CN)NC(=O)[C@H](CCN)NC1=O)[C@@H](C)O [synAQU5-C4] (Myristoyl-[Dap]TLS[Dab][Dap]FI[Orn]NF; ester 4-C)	> 64	1.84	decreased the number of viable cells by two orders of magnitude after 5 h	did not show an obvious accumulation	significant increase	significant increase	stronger dose‐dependent inhibition	did not show dose‐dependent inhibition	no obvious acute toxicities
CCCCCCCCCCCCCC(=O)N[C@@H](CN)C(=O)N[C@H](C(=O)N[C@@H](CC(C)C)C(=O)N[C@@H](CO)C(=O)N[C@@H](CCN)C(=O)N[C@@H](CN)C(=O)N[C@@H](Cc1ccccc1)C(=O)N[C@H](C(=O)N[C@@H](CCCN)C(=O)N[C@@H](CC(N)=O)C(=O)N[C@@H](Cc1ccccc1)C(=O)O)[C@@H](C)CC)[C@@H](C)O [synAQU5-L] (Myristoyl-[Dap]TLS[Dab][Dap]FI[Orn]NF-OH)	> 64	0.29	only inhibited the growth of S. aureus USA300 within 2 h	did not show an obvious accumulation	not aquicidine L caused a significant increase	not aquicidine L caused a significant increase		did not show dose‐dependent inhibition	no obvious acute toxicities
